In article PMC11062899, “De novo development of small cyclic peptides that are orally bioavailable” (Nature Chemical Biology, 2023):
Where “and” joins values, the source holds several entries; their conditions need not be identical. Identical values can stand only once. Like-named read-outs stand apart in the source and are kept apart here.

Key:
[1] = target: human α-thrombin (Homo sapiens, UniProt P00734); test: Protease inhibition, Ki for human α-thrombin (fluorogenic substrate Z-Gly-Gly-Arg-AMC); assay type: biochemical; details: for Slope normalized to DMSO (proteolytic substrate cleavage over time): replicates R1-R3
Summary of the method: (§1)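 Inhibition was measured as AMC fluorescence from 50 μM substrate, monitored for 30 min at 25 °C, relative to a peptide-free control. Human and rat enzymes were present at 2 nM and 3 nM final, respectively, in 50 mM Tris-HCl pH 7.4, 150 mM NaCl, 10 mM MgCl2, 1 mM CaCl2. Ki derives from fitted IC50 via Cheng–Prusoff.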

[2] = target: T1, porcine pepsin (Sus scrofa, UniProt P00791); test: Peptide stability in simulated gastric fluid (SGF); assay type: in vitro ADME
T1 construct: 0.32 g of porcine pepsin (Sigma-Aldrich, P7125) was dissolved under gentle agitation; purchased Sigma-Aldrich P7125
T1 sequence (P00791 60-385): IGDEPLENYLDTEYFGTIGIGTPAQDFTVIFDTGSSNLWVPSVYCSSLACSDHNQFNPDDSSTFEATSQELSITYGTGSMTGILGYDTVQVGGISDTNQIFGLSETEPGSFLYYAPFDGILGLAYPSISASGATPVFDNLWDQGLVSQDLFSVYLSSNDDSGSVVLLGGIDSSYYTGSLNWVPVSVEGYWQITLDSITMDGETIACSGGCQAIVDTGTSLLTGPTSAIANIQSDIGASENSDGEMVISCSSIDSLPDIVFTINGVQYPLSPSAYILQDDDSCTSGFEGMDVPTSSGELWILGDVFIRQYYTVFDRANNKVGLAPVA
Summary of the method: (§2)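 Peptide from a 1 mM DMSO stock was added to fluid pre-warmed at 37 °C. SGF was pH 1.2 NaCl with porcine pepsin (0.32 g per 100 ml), and SIF was pH 6.8 potassium phosphate with porcine pancreatin (1 g per 100 ml). Supernatant peptide was quantified by LC–MS, with residual expressed as T1/T0.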

[3] = Passive artificial membrane permeability (PAMPA)
[4] = Peptide stability in simulated intestinal fluid (SIF); assay type: in vitro ADME, porcine; details: simulated gi fluid; 8 h, 37 °C, pH 6.8; read-out: Proteolytic stability: SIF (8 h) % remaining
Summary of the method: as §2

[5] = system: porcine pancreatin; test: as above; assay type: in vitro ADME; details: after 8 h vs 0 h (TIC)
Summary of the method: as §2

[6] = target: T2, rat α-thrombin (Rattus norvegicus, UniProt P18292); test: Protease inhibition, Ki for rat α-thrombin (fluorogenic substrate Z-Gly-Gly-Arg-AMC); assay type: biochemical; details: for Slope normalized to DMSO (proteolytic substrate cleavage over time): replicates R1-R3
T2 construct: rat α-thrombin (Molecular Innovations) were used at final concentrations of 2 nM and 3 nM; purchased Molecular Innovations
Summary of the method: as §1

Slope normalized to DMSO (proteolytic substrate cleavage over time) ([1]; human alpha thrombin, peptide 1.02E-03 uM): 91.7 and 75.0 and 84.5
Slope normalized to DMSO (proteolytic substrate cleavage over time) ([1]; human alpha thrombin, peptide 1.04E+00 uM): 9.7 and 14.2 and 12.5
Slope normalized to DMSO (proteolytic substrate cleavage over time) ([1]; human alpha thrombin, peptide 1.27E-04 uM): 92.1 and 89.4 and 95.4
Slope normalized to DMSO (proteolytic substrate cleavage over time) ([1]; human alpha thrombin, peptide 1.30E-01 uM): 16.4 and 22.7 and 18.5
Slope normalized to DMSO (proteolytic substrate cleavage over time) ([1]; human alpha thrombin, peptide 1.59E-05 uM): 104.8 and 95.5 and 101.0
Slope normalized to DMSO (proteolytic substrate cleavage over time) ([1]; human alpha thrombin, peptide 1.63E-02 uM): 54.1 and 48.1 and 57.3
Slope normalized to DMSO (proteolytic substrate cleavage over time) ([1]; human alpha thrombin, peptide 1.67E+01 uM): 4.0 and 6.4 and 1.8
Slope normalized to DMSO (proteolytic substrate cleavage over time) ([1]; human alpha thrombin, peptide 2.03E-03 uM): 79.8 and 80.8 and 68.0
Slope normalized to DMSO (proteolytic substrate cleavage over time) ([1]; human alpha thrombin, peptide 2.08E+00 uM): 5.1 and 8.3 and -0.433
Slope normalized to DMSO (proteolytic substrate cleavage over time) ([1]; human alpha thrombin, peptide 2.54E-04 uM): 93.1 and 85.9 and 92.0
Slope normalized to DMSO (proteolytic substrate cleavage over time) ([1]; human alpha thrombin, peptide 2.60E-01 uM): 11.6 and 16.8 and 13.0
Slope normalized to DMSO (proteolytic substrate cleavage over time) ([1]; human alpha thrombin, peptide 3.18E-05 uM): 103.7 and 94.2 and 96.3
Slope normalized to DMSO (proteolytic substrate cleavage over time) ([1]; human alpha thrombin, peptide 3.26E-02 uM): 46.3 and 39.7 and 47.4
Slope normalized to DMSO (proteolytic substrate cleavage over time) ([1]; human alpha thrombin, peptide 3.33E+01 uM): -4.9 and 8.0 and -5.2
Slope normalized to DMSO (proteolytic substrate cleavage over time) ([1]; human alpha thrombin, peptide 4.07E-03 uM): 68.4 and 49.8 and 67.1
Slope normalized to DMSO (proteolytic substrate cleavage over time) ([1]; human alpha thrombin, peptide 4.17E+00 uM): 7.1 and 16.4 and 0.5
Slope normalized to DMSO (proteolytic substrate cleavage over time) ([1]; human alpha thrombin, peptide 5.09E-04 uM): 91.3 and 86.2 and 83.7
Slope normalized to DMSO (proteolytic substrate cleavage over time) ([1]; human alpha thrombin, peptide 5.21E-01 uM): 9.0 and 17.4 and 10.1
Slope normalized to DMSO (proteolytic substrate cleavage over time) ([1]; human alpha thrombin, peptide 6.36E-05 uM): 103.6 and 90.9 and 101.0
Slope normalized to DMSO (proteolytic substrate cleavage over time) ([1]; human alpha thrombin, peptide 6.51E-02 uM): 26.8 and 23.7 and 23.8
Slope normalized to DMSO (proteolytic substrate cleavage over time) ([1]; human alpha thrombin, peptide 6.67E+01 uM): 5.5 and 8.8 and 5.2
Slope normalized to DMSO (proteolytic substrate cleavage over time) ([1]; human alpha thrombin, peptide 7.95E-06 uM): 105.4 and 96.7 and 100.1
Slope normalized to DMSO (proteolytic substrate cleavage over time) ([1]; human alpha thrombin, peptide 8.14E-03 uM): 56.5 and 45.5 and 52.6
Slope normalized to DMSO (proteolytic substrate cleavage over time) ([1]; human alpha thrombin, peptide 8.33E+00 uM): -1.1 and 9.3 and 3.5
IC50 ([1]; human alpha thrombin, single replicates R1-R3, read-out: IC50, human alpha thrombin inhibition): 13.6 nM and 7.3 nM and 13.8 nM
Ki ([1]; purified peptide, mean and s.d. of three measurements, read-out: Ki human α-thrombin): 8.9 ± 2.3 nM
SGF stability, Residual peptide Average ([2]; after 8 h vs 0 h (TIC), average of R1-R3): 106.85
SGF stability, Residual peptide ([2]; after 8 h vs 0 h (TIC), single replicates R1-R3): 117.40 and 115.58 and 87.56
remaining at 8 h ([2]; simulated gi fluid, 8 h, 37 °C, pH 1.2, read-out: Proteolytic stability: SGF (8 h) % remaining): 107 ± 17%
PAMPA permeability: % permeability ([3]; 50 μM, 12–18 h, acceptor concentration relative to equilibrium): 47 ± 12%
Papp at 50 μM ([3]; PAMPA, pH 7.4): 6.17 ×10⁻⁶ cm/s
Permeability% Average ([3]; top well sample vs theoretical equilibrium sample (TIC), average of R1-R3): 46.9%
Permeability% ([3]; top well sample vs theoretical equilibrium sample (TIC), single replicates R1-R3): 48.47% and 34.58% and 57.51%
remaining at 8 h [4]: 82 ± 10%
SIF stability, Residual peptide Average ([5]; average of R1-R3): 82.44
SIF stability, Residual peptide ([5]; single replicates R1-R3): 91.81 and 71.29 and 84.22
Ki ([6]; purified peptide, mean and s.d. of three measurements, read-out: Ki rat α-thrombin): 1.1 ± 0.41 nM
Slope normalized to DMSO (proteolytic substrate cleavage over time) ([6]; rat alpha thrombin, peptide 1.02E-03 uM): 71.6 and 67.2 and 58.0
Slope normalized to DMSO (proteolytic substrate cleavage over time) ([6]; rat alpha thrombin, peptide 1.04E+00 uM): 6.5 and 8.7 and 6.4
Slope normalized to DMSO (proteolytic substrate cleavage over time) ([6]; rat alpha thrombin, peptide 1.27E-04 uM): 89.6 and 85.7 and 79.9
Slope normalized to DMSO (proteolytic substrate cleavage over time) ([6]; rat alpha thrombin, peptide 1.30E-01 uM): 12.8 and 13.3 and 8.9
Slope normalized to DMSO (proteolytic substrate cleavage over time) ([6]; rat alpha thrombin, peptide 1.59E-05 uM): 102.5 and 122.8 and 94.2
Slope normalized to DMSO (proteolytic substrate cleavage over time) ([6]; rat alpha thrombin, peptide 1.63E-02 uM): 35.3 and 31.4 and 27.2
Slope normalized to DMSO (proteolytic substrate cleavage over time) ([6]; rat alpha thrombin, peptide 1.67E+01 uM): 4.8 and 5.1 and 4.2
Slope normalized to DMSO (proteolytic substrate cleavage over time) ([6]; rat alpha thrombin, peptide 2.03E-03 uM): 56.5 and 52.5 and 45.1
Slope normalized to DMSO (proteolytic substrate cleavage over time) ([6]; rat alpha thrombin, peptide 2.08E+00 uM): 5.0 and 7.7 and 6.7
Slope normalized to DMSO (proteolytic substrate cleavage over time) ([6]; rat alpha thrombin, peptide 2.54E-04 uM): 83.1 and 80.0 and 103.6
Slope normalized to DMSO (proteolytic substrate cleavage over time) ([6]; rat alpha thrombin, peptide 2.60E-01 uM): 12.7 and 11.2 and 6.9
Slope normalized to DMSO (proteolytic substrate cleavage over time) ([6]; rat alpha thrombin, peptide 3.18E-05 uM): 95.8 and 95.0 and 90.9
Slope normalized to DMSO (proteolytic substrate cleavage over time) ([6]; rat alpha thrombin, peptide 3.26E-02 uM): 29.1 and 26.7 and 19.1
Slope normalized to DMSO (proteolytic substrate cleavage over time) ([6]; rat alpha thrombin, peptide 3.33E+01 uM): 5.0 and 6.0 and 4.0
Slope normalized to DMSO (proteolytic substrate cleavage over time) ([6]; rat alpha thrombin, peptide 4.07E-03 uM): 51.9 and 49.0 and 39.9
Slope normalized to DMSO (proteolytic substrate cleavage over time) ([6]; rat alpha thrombin, peptide 4.17E+00 uM): 5.5 and 6.1 and 4.2
Slope normalized to DMSO (proteolytic substrate cleavage over time) ([6]; rat alpha thrombin, peptide 5.09E-04 uM): 76.1 and 71.5 and 67.7
Slope normalized to DMSO (proteolytic substrate cleavage over time) ([6]; rat alpha thrombin, peptide 5.21E-01 uM): 9.5 and 9.3 and 6.7
Slope normalized to DMSO (proteolytic substrate cleavage over time) ([6]; rat alpha thrombin, peptide 6.36E-05 uM): 93.9 and 94.0 and 87.7
Slope normalized to DMSO (proteolytic substrate cleavage over time) ([6]; rat alpha thrombin, peptide 6.51E-02 uM): 18.8 and 16.8 and 12.8
Slope normalized to DMSO (proteolytic substrate cleavage over time) ([6]; rat alpha thrombin, peptide 6.67E+01 uM): 5.5 and 6.5 and 3.1
Slope normalized to DMSO (proteolytic substrate cleavage over time) ([6]; rat alpha thrombin, peptide 7.95E-06 uM): 102.1 and 101.6 and 99.0
Slope normalized to DMSO (proteolytic substrate cleavage over time) ([6]; rat alpha thrombin, peptide 8.14E-03 uM): 40.8 and 35.1 and 27.1
Slope normalized to DMSO (proteolytic substrate cleavage over time) ([6]; rat alpha thrombin, peptide 8.33E+00 uM): 4.4 and 7.1 and 3.1
IC50 ([6]; rat alpha thrombin, single replicates R1-R3, read-out: IC50, rat alpha thrombin inhibition): 2.94 nM and 1.12 nM and 1.9 nM
SMILES: O=C1C[C@H]2CCCN2C(=O)[C@H](Cc2ccccc2)NC(=O)[C@@H](NC(=O)c2ccc(Cl)s2)CSC/C=C/CSCCN1 [peptide 32]
Ki ([1]; human alpha thrombin, single replicates R1-R3, read-out: Ki, human alpha thrombin inhibition): 10.4 nM (2×) and 5.65 nM (2×) and 10.6 nM (2×)
Ki ([6]; rat alpha thrombin, single replicates R1-R3, read-out: Ki, rat alpha thrombin inhibition): 1.63 nM (2×) and 0.618 nM (2×) and 1.05 nM
